Laboratory results as given in patent US9603899B2, “PDGF induced cell homing” (The Trustees of Columbia University in the City of New York, priority 2010, dated 2017).
Entries after “also recorded” stand apart in the source; their conditions may differ.

Tests used:
[1] = test system: alveolar stem/progenitor cells; conditions: 15 μM; chemically defined medium, calcein AM label
[2] = test system: alveolar stem/progenitor cells; test: Transwell migration assay; type: cell-based, human; conditions: for migration / recruitment of alveolar stem/progenitor cells: negative control serum-free medium, positive control DMEM with 15% FBS
Experimental: Transwell migration assay was performed to determine PDGF's ability to recruit alveolar stem/progenitor cells in a dose-response manner.

## C[S+]([O-])CCCCN=C=S (stereo not shown) [sulforaphane]
[1]
  capillary tubular formation: blocked

## PDGF-AA: PDGF isoform composed of two A chains
[2]; Transwell migration
  migration / recruitment of alveolar stem/progenitor cells: resulted in cell migration

## PDGF-AB: PDGF isoform composed of one A and one B chain
[2]; Transwell migration
  migration / recruitment of alveolar stem/progenitor cells: resulted in cell migration

## PDGF-BB: PDGF isoform composed of two B chains
[2]; Transwell migration, compared with other PDGF isoforms and positive control 15% FBS
  chemoattractant efficacy compared among PDGF isoforms: most potent chemoattractant among all PDGF isoforms; also recorded: most robust efficacy, which was equal to positive control group with 15% fetal bovine serum; also recorded: higher rates of cell migration
[2]; Transwell migration
  migration / recruitment of alveolar stem/progenitor cells: induces robust, dose-dependent migration; also recorded: resulted in cell migration

## platelet-derived growth factor [PDGF]
[2]; Transwell migration
  migration / recruitment of alveolar stem/progenitor cells: induces robust, dose-dependent migration; also recorded: cell migration was shown; also recorded: induced dose-dependent migration
[2]; tested at 10 ng/ml, 25 ng/ml and 50 ng/ml
  PDGF concentration at which highest cell migration was observed: 50 ng/mL
